Results published in patent publication US11555212B2, “Process for the production of sulfated phenolic compounds using modified Escerichia coli” (CysBio ApS, priority 2016, dated 2023).

Experiments:
[1] = biological target: T1, SULT1A1 from Rattus norvegicus (Rattus norvegicus, UniProt P17988); test: Percent reduction of phenolic compounds by E. coli KRX expressing a sulfotransferase; format: cell-based; conditions: M9, 0.1 mM IPTG, 0.1% rhamnose, compound 50 μM, overnight 37° C.
T1 construct: 1, 3, 4, 5, and 6 were cloned amplified from liver tissue cDNA; expressed in transfected cells
Procedure: M9 medium containing 0.2% glucose, 0.1 mM IPTG, 0.1% rhamnose, and 100 μg/mL ampicillin was prepared.
The strains described above were grown in 2×YT medium with 100 μg/mL ampicillin overnight before their were used to inoculate the media by 50-fold dilution. The cultures were grown overnight with vigorous shaking at 37° C. […] The compounds were detected by UV absorbance except for 4-methylbelliferone, which was measured by fluorescence.

[2] = biological target: T2, SULT1A1 from rat (Rattus norvegicus) (Rattus norvegicus, UniProt P17988); test: Percent reduction in concentration of phenolic compounds by E. coli expressing a sulfotransferase, compared to control strain; format: cell-based; conditions: compared to the control strain, M9, 1 mM IPTG, single substrate at start concentration of Table 14, overnight 37° C.; for Percent reduction in concentration, SULT1A1 + CysDNCQ: E. coli BL21(DE3)pLysS expressing SULT1A1 rat + CysDNCQ; for Percent reduction in concentration, SULT1A1: E. coli BL21(DE3)pLysS expressing SULT1A1 rat
T2 construct: 1, 3, 4, 5, and 6 were cloned amplified from liver tissue cDNA; expressed in transfected cells
Procedure: (§1) The concentration of p-courmaric acid (pHCA) and zosteric acid in the supernatant was quantified by high performance liquid chromatography (HPLC) and compared to chemical standards. HPLC was done on a Thermo setup using a HS-F5 column and mobile phases: 5 mM ammonium formate pH 4.0 (A) and acetonitrile (B) at 1.5 mL min-1, using a gradient elution starting at 5% B. From 0.5 min after injection to 7 min, the fraction of B increased linearly from 5% to 60%, and between 9.5 min and 9.6 the fraction of B decreased back to 5%, and remaining there until 12 min. pHCA and zosteric acid were quantified by measuring absorbance at 277 nm.
To further test the range of substrates that can be sulfated, we used strains carrying plasmids expressing SULT1A1 from rat (Rattus norvegicus) and SULT1E1 from chicken (Gallus gallus domesticus) (Example 1) cloned into the expression vector pETDuet-1, and cysDNCQ from E. coli cloned into expression vector pRSFDuet-1 (Example 2). The plasmids were introduced into the E. coli expression strain BL21(DE3)pLysS as described previously, selecting for transformants with appropriate antibiotics, namely 34 μg mL^−1 chloramphenicol for pLysS, 100 μg mL^−1 ampicillin for pETDuet-1-based vectors, and 100 μg mL^−1 kanamycin for pRSFDuet-1-based vectors. […] A control strain without a sulfotransferase gene or cysDNCQ operon was also examined.
The strains were precultured in 2×YT medium with appropriate antibiotics. 10 μL of these precultures were used to inoculate M9 media with 1 mM IPTG and none or a single substrate for sulfation. After overnight growth at 37° C., 300 rpm the supernatants were withdrawn and examined by HPLC as described in Example 1. The compounds were detected by UV absorbance.

[3] = system: SULT1E1 from chicken (Gallus gallus domesticus); test: as above; format: cell-based; conditions: E. coli BL21(DE3)pLysS expressing SULT1E1 chicken, compared to the control strain; M9, 1 mM IPTG, single substrate at start concentration of Table 14; overnight 37° C.
[4] = biological target: T3, SULT1A1 Canis lupus familiaris (Canis lupus familiaris, UniProt Q29476); test: Percent conversion of substrates by E. coli expressing a sulfotransferase; format: cell-based; conditions: E. coli BL21(DE3)pLysS expressing SULT1A1 Canis lupus familiaris; M9; pHCA 100 μM, resveratrol 95 μM or kaempferol 87 μM; overnight 37° C.
T3 construct: 1, 3, 4, 5, and 6 were cloned amplified from liver tissue cDNA; expressed in transfected cells; host or cells: E. coli BL21(DE3)pLysS
Procedure: as §1
(§2) Different sulfotransferases were examined for their substrate specificities against three substrates. We tested the sulfotransferases mentioned in example 1, as well as additional ones. The genes encoding these were cloned as described in example 1 using the primers shown in the table below from cDNA libraries of the respective organisms, except for the SULT1A1 from rat (Rattus norvegicus) codon-optimized for E. coli (described above). The resulting vectors were transformed into BL21(DE3)pLysS.
(§3) The resulting strains were grown in M9 medium containing either 100 μM pHCA, 95 μM resveratrol or 87 μM kaempferol. The cultures were grown overnight at 37° C., 300 rpm. The following day the supernatants were isolated and examined by HPLC as described in example 1.

SULT1A1 Equus caballus = test: as above; format: cell-based; conditions: E. coli BL21(DE3)pLysS expressing SULT1A1 Equus caballus; M9; pHCA 100 μM, resveratrol 95 μM or kaempferol 87 μM; overnight 37° C.
Procedure: as §1, §2, §3

[5] = biological target: T4, SULT1A1 Rattus norvegicus (Rattus norvegicus, UniProt P17988); test: as above; format: cell-based; conditions: M9, pHCA 100 μM, resveratrol 95 μM or kaempferol 87 μM, overnight 37° C.
T4 construct: 1, 3, 4, 5, and 6 were cloned amplified from liver tissue cDNA; expressed in transfected cells
Procedure: as §1, §2, §3

[6] = system: SULT1A1 Sus scrofa domesticus; test: as above; format: cell-based; conditions: E. coli BL21(DE3)pLysS expressing SULT1A1 Sus scrofa domesticus; M9; pHCA 100 μM, resveratrol 95 μM or kaempferol 87 μM; overnight 37° C.
Procedure: as §1, §2, §3

SULT1A1 human = biological target: T5, SULT1A1 human (Homo sapiens, UniProt P50225, V223M); test: as above; format: cell-based; conditions: E. coli BL21(DE3)pLysS expressing SULT1A1 human; M9; pHCA 100 μM, resveratrol 95 μM or kaempferol 87 μM; overnight 37° C.
T5 construct: expressed in transfected cells; host or cells: E. coli BL21(DE3)pLysS
Procedure: as §1, §2, §3

[7] = system: SULT1C1 Gallus gallus domesticus; test: as above; format: cell-based; conditions: E. coli BL21(DE3)pLysS expressing SULT1C1 Gallus gallus domesticus; M9; pHCA 100 μM, resveratrol 95 μM or kaempferol 87 μM; overnight 37° C.
Procedure: as §1, §2, §3

[8] = system: SULT1E1 Gallus gallus domesticus; test: as above; format: cell-based; conditions: E. coli BL21(DE3)pLysS expressing SULT1E1 Gallus gallus domesticus; M9; pHCA 100 μM, resveratrol 95 μM or kaempferol 87 μM; overnight 37° C.
Procedure: as §1, §2, §3

D. rerio SULT6B1 = test: Percent reduction of compounds by E. coli KRX expressing distantly related sulfotransferases; format: cell-based, Danio rerio; conditions: 100 μM resveratrol, 20 μM kaempferol or 3-hydroxy-4-methoxycinnamic acid
From the text: The gene (sequence SEQ ID NO: 102) encoding SULT6B1 (sequence SEQ ID NO: 103) from Danio rerio was codon-optimized for E. coli and synthesized as in example 1.
(§4) The genes were cloned into the vector pETDuet-1 as described in Example 1, and the resulting vectors were transformed into E. coli KRX (obtained from Promega).

[9] = system: H. ochraceum DSM 14365 Hoch_6098; test: as above; format: cell-based, Haliangium ochraceum DSM 14365; conditions: E. coli KRX expressing H. ochraceum DSM 14365 Hoch_6098; 100 μM resveratrol, 20 μM kaempferol or 50 μL 3-hydroxy-4-methoxycinnamic acid
From the text: The gene (sequence SEQ ID NO: 104) encoding Hoch_6098 (sequence SEQ ID NO: 105) from the bacterium Haliangium ochraceum DSM 14365 was codon-optimized for E. coli and synthesized as in example 1.
as §4

D. rerio SULT1ST1 = biological target: T6, D. rerio SULT1ST1 (Danio rerio, UniProt Q6PH37); test: as above; format: cell-based; conditions: 100 μM resveratrol, 20 μM kaempferol or 3-hydroxy-4-methoxycinnamic acid
T6 construct: expressed in transfected cells; host or cells: E. coli KRX (Promega), vector pETDuet-1
T6 sequence (Q6PH37 1-299): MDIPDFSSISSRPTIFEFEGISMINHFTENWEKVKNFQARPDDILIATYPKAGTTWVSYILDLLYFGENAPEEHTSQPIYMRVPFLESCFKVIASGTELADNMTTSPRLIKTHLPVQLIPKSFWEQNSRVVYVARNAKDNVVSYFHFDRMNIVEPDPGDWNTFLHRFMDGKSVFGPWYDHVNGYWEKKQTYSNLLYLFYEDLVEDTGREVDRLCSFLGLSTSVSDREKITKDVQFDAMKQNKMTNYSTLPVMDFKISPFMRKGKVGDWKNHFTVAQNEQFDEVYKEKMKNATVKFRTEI

[10] = E. coli BL21(DE3)pLysS expressing SULT1A1 Rattus norvegicus (Codon-optimized for E. coli)
[11] = E. coli BL21(DE3)pLysS expressing SULT1A1 Rattus norvegicus

T4 sequence (P17988 whole entry): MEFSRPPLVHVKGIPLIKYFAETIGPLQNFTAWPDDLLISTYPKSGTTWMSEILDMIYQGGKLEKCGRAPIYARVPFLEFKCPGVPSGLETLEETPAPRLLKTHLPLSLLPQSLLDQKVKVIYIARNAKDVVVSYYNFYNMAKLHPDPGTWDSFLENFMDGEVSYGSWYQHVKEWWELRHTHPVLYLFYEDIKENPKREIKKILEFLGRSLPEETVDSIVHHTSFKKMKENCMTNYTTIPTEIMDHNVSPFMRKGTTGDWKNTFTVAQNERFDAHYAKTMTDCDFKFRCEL
T2 sequence (P17988 whole entry): as above
T1 sequence (P17988 whole entry): as above
T3 sequence (Q29476 whole entry): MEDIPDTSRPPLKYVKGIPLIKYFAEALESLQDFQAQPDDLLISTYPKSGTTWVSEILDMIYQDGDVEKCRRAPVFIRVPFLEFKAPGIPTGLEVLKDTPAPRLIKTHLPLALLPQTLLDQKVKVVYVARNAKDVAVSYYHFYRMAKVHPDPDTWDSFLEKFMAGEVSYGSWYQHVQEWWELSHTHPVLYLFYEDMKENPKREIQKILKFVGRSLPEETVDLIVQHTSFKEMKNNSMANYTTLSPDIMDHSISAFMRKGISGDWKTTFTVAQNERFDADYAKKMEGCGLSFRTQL
T5 sequence (P50225 whole entry V223M): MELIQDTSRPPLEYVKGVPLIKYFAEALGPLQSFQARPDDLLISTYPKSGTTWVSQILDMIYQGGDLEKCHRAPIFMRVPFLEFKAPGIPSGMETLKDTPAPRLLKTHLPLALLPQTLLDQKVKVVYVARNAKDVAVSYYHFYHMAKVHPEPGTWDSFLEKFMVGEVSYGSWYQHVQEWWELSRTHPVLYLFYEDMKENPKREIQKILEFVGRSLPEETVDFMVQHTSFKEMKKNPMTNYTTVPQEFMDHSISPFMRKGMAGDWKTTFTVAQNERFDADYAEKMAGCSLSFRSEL

Molecule | Percent reduction, SULT1A1 [1] [%] | Percent reduction in concentration, SULT1A1 + CysDNCQ [2] [%] | Percent reduction in concentration, SULT1A1 [2] [%] | Percent reduction in concentration, SULT1E1 [3] [%] | also measured
4-ethylguaiacol | 50 |  |  |  | 
O=C(O)CCc1ccc(O)cc1 [3-(4-Hydroxyphenyl)propionic acid] |  | 7 | 3 | 1 | 
COc1ccc(C=CC(=O)O)cc1O [3-Hydroxy-4-methoxycinnamic acid] |  | 62 | 51 |  | 
O=C(O)C(=O)Cc1ccc(O)cc1 [4-Hydroxyphenylpyruvic acid, 4-hydroxyphenylpyruvic acid] |  | 64 | 47 | 100 | 
CC(=O)Nc1ccc(O)cc1 [4-acetamidophenol, reference compound] |  | 30 | 24 | 10 | 
CCc1ccc(O)cc1 [4-ethylphenol] | 100 |  |  |  | 
O=C(O)c1ccc(O)cc1 [4-hydroxybenzoic acid] |  | 6 | 5 | 4 | 
Cc1cc(=O)oc2cc(O)ccc12 [4-methylbelliferone] | 100 |  |  |  | 
O=[N+]([O-])c1ccc(O)cc1 [4-nitrophenol] | 30 |  |  |  | 
C=Cc1ccc(O)cc1 [4-vinylphenol] | 100 |  |  |  | 
O=c1cc(-c2ccc(O)cc2)oc2cc(O)cc(O)c12 [Apigenin] |  | 99 | 41 | 98 | 
COc1cc(/C=C/C(=O)O)ccc1O [Ferulic acid, ferulic acid] |  | 100 | 72 | 67 | 
O=c1cc(-c2ccc(O)c(O)c2)oc2cc(O)cc(O)c12 [Luteolin] |  | 37 | 27 | 0 | 
O=C1C[C@@H](c2ccc(O)cc2)Oc2cc(O)cc(O)c21 [Naringenin] | 60 |  |  |  | 
O=c1c(O)c(-c2ccc(O)c(O)c2)oc2cc(O)cc(O)c12 [Quercetin] |  | 81 | 75 | 74 | 
COc1cc(/C=C/C(=O)O)cc(OC)c1O [Sinapic acid, sinapic acid] | 31 |  |  |  | 
COc1cc(C(=O)O)ccc1O [Vanillic acid, vanillic acid] |  | 39 | 33 | 0 | 
O=c1c(O)c(-c2ccc(O)c(O)c2)oc2cc(O)ccc12 [fisetin] |  | 100 | 98 | 98 | 
O=c1c(O)c(-c2ccc(O)cc2)oc2cc(O)cc(O)c12 [kaempferol, Kaempferol] |  |  |  |  | Percent conversion of the substrate [4]: 60%; Percent conversion of the substrate (SULT1A1 Equus caballus): 96%; Percent conversion of the substrate [5, 10]: 38%; Percent conversion of the substrate [5, 11]: 95%; Percent conversion of the substrate [6]: 45%; Percent conversion of the substrate (SULT1A1 human): 97%; Percent conversion of the substrate [7]: 80%; Percent conversion of the substrate [8]: 47%; Percent reduction (D. rerio SULT6B1): 44%; Percent reduction [9]: 100%
Oc1ccc(C=Cc2cc(O)cc(O)c2)cc1 [resveratrol] |  |  |  |  | Percent conversion of the substrate [4]: 61%; Percent conversion of the substrate (SULT1A1 Equus caballus): 100%; Percent conversion of the substrate [5, 10]: 58%; Percent conversion of the substrate [5, 11]: 93%; Percent conversion of the substrate [6]: 88%; Percent conversion of the substrate (SULT1A1 human): 36%; Percent conversion of the substrate [7]: 100%; Percent conversion of the substrate [8]: 100%; Percent reduction (D. rerio SULT1ST1): 80%; Percent reduction [9]: 7%
